pIC50: −log10 of the molar value.

The target in one data set is Maltase-glucoamylase (Homo sapiens, UniProt O43451). As to the kind of experiment: Inhibition of alpha-glucosidase (unknown origin).
Data set [1] can be described thus: Inhibition of P-gp in human K562 cells assessed as adriamycin IC50 at 8 ug/ml.
Data set [2] is described as follows: Inhibition of P-gp in human K562/A02 cells assessed as adriamycin IC50 at 6 ug/ml.
Data set [3] can be described thus: Inhibition of P-gp in human K562 cells assessed as adriamycin IC50 at 2 ug/ml.
Data set [4] in a line: Inhibition of P-gp in human K562 cells assessed as adriamycin IC50 at 6 ug/ml.
Data set [5] can be described thus: Inhibition of P-gp in human K562/A02 cells assessed as adriamycin IC50 at 2 ug/ml.
Data set [6] can be described thus: Inhibition of P-gp in human K562/A02 cells assessed as adriamycin IC50 at 8 ug/ml.
A short description of data set [7]: Inhibition of P-gp in human K562 cells assessed as adriamycin IC50 at 10 ug/ml.
A short description of data set [8]: Inhibition of P-gp in human K562/A02 cells assessed as adriamycin IC50 at 10 ug/ml.
Data set [9] can be described thus: Inhibition of P-gp in human K562/A02 cells assessed as adriamycin IC50 at 4 ug/ml.
Data set [10] is described as follows: Inhibition of P-gp in human K562 cells assessed as adriamycin IC50 at 4 ug/ml.

Chain of Maltase-glucoamylase (O43451 whole entry): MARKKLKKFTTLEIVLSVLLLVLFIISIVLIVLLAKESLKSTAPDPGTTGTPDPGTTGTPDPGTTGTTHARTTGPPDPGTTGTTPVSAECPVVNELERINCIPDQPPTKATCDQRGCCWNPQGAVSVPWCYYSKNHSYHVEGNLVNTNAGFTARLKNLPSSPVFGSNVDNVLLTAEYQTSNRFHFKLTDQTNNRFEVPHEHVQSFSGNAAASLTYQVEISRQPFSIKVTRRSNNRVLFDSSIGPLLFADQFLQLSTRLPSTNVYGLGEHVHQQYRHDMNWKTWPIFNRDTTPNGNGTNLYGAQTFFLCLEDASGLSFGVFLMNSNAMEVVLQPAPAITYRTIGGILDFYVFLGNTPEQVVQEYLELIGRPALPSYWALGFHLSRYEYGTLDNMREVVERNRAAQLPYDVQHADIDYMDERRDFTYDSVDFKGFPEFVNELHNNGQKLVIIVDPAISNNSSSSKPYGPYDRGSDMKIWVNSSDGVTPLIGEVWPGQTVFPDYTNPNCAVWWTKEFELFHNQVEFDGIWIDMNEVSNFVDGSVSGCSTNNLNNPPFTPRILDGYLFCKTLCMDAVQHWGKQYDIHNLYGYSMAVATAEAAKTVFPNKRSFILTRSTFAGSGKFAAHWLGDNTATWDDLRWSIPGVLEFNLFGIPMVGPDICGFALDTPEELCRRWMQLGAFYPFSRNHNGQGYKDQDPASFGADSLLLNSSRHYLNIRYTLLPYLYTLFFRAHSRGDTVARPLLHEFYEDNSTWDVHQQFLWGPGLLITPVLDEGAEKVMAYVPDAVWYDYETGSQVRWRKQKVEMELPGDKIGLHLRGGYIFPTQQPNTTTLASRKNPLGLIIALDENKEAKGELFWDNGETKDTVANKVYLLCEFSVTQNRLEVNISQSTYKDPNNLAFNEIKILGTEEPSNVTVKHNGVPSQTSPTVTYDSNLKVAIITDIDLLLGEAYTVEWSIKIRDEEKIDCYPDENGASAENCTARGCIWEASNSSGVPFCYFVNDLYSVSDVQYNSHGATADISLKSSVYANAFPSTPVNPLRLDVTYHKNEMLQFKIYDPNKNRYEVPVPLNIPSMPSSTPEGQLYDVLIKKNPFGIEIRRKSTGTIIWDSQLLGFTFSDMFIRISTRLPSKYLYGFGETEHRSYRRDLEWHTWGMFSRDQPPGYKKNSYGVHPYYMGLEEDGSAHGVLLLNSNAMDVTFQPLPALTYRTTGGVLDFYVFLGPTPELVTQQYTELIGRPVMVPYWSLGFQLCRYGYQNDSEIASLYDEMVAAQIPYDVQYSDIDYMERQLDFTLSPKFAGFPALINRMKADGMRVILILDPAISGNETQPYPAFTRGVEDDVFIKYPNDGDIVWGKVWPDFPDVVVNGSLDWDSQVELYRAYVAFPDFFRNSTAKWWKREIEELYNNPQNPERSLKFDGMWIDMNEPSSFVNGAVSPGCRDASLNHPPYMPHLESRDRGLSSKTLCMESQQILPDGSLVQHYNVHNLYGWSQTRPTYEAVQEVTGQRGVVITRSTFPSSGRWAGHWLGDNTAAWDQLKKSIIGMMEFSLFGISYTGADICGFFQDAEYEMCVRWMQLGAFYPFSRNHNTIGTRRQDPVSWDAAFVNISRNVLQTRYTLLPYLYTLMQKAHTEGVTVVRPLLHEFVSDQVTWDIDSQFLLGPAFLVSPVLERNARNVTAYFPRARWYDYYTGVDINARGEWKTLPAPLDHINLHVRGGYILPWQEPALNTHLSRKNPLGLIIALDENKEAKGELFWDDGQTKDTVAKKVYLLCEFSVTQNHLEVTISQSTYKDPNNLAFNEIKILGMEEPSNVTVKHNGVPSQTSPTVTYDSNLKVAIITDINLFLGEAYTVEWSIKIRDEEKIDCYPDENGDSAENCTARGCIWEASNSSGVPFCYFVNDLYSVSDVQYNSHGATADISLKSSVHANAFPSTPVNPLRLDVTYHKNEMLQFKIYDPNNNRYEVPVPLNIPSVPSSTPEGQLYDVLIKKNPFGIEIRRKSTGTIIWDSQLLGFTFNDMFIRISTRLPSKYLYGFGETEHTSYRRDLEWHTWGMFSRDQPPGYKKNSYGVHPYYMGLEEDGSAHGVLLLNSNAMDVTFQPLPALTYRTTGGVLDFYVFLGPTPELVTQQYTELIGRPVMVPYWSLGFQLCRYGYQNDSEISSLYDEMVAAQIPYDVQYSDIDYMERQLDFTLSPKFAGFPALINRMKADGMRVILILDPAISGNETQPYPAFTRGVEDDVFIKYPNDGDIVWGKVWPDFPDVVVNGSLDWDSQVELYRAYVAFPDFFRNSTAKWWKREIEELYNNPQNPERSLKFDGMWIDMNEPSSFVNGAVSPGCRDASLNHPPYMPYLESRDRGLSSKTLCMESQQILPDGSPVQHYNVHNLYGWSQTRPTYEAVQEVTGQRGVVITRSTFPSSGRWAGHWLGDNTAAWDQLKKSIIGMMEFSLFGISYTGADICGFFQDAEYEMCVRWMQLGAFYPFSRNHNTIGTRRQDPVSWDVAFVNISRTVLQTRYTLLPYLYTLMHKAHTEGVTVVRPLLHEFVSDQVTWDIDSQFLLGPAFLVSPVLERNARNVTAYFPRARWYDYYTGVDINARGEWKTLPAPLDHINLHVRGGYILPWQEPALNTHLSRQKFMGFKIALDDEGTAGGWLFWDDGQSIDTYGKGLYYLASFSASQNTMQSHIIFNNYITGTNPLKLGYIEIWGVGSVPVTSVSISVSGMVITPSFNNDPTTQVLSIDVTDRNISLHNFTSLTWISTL

One may read the pIC50 as the IC50 on a negative log10 scale, so that one unit is a factor of ten. Compound `O=c1[nH]c2ccccc2n2c(-c3ccc([N+](=O)[O-])cc3[N+](=O)[O-])ccc12` had a pIC50 against Maltase-glucoamylase of 4.64.
Same read-out and setting: then `O=c1[nH]c2ccccc2n2c(-c3ccc(Cl)c(Cl)c3)ccc12`, with 4.89; and `Cc1nc2ccccc2n(CC(=O)N/N=C/c2ccc(OCCn3cc(CN4CCOCC4)nn3)cc2)c1=O`, with 4.38; and `COc1ccc(C2SCC(=O)N2c2ccc3nc(Cc4ccc(O)cc4)c(=O)[nH]c3c2)cc1` (centres undefined), with 3.56.
Still for that read-out and setting: then `O=c1[nH]c2ccccc2nc1N/N=C/c1cccs1`, with 5.00; and `CC(C)c1nc2ccc(N3C(=O)CSC3c3ccc([N+](=O)[O-])cc3)cc2[nH]c1=O` (centres undefined), with 3.52.
Still for that read-out and setting: then `COc1cccc(/C=N/Nc2nc3ccccc3[nH]c2=O)c1`, with 4.86; and `Cc1nc2ccccc2n(CC(=O)N/N=C/c2ccc(OCCn3cc(CN4CCCC4)nn3)cc2)c1=O`, with 4.34.
On Maltase-glucoamylase, `Cc1ccc(-n2cc(COc3ccc(/C=N/NC(=O)Cn4c(=O)c(C)nc5ccccc54)cc3)nn2)cc1` gave a pIC50 of 4.32.
Same read-out and setting: as for `O=C(/C=C/c1ccccc1)/C=C1/Nc2ccccc2NC1=O`, the figure is 4.40.
`Cc1nc2cc(F)ccc2[nH]c1=O`: the pIC50 is 6.14 in data set [1]; 5.12 in [2]; 6.11 in [3]; 6.08 in data set [4]; 4.89 in data set [5]; 5.24 in [6]. In addition, the pIC50 in data set [7] is 6.25; in data set [8] it was 5.20; in data set [9], 5.04; in data set [10] it was 6.17.
In turn, `Cc1ccc(NC(=O)Cn2c(=O)c(C)nc3ccccc32)c([N+](=O)[O-])c1` gave a pIC50 against Maltase-glucoamylase of 4.08.
The same measure, in the same setting: then `O=c1[nH]c2ccccc2n2c(-c3ccc(O)cc3O)ccc12`, with 4.89.
Still for that read-out and setting: as for `Cc1nc2ccccc2n(CC(=O)N/N=C/c2ccc(OCCn3cc(CN4CCCCC4)nn3)cc2)c1=O`, the figure is 4.37.
As for `COc1ccc(C(=O)Nc2cccc(C(=O)/C=C3/Nc4ccccc4NC3=O)c2)cc1`, at Maltase-glucoamylase, the pIC50 is 3.78.
For `Cc1ccc2[nH]c(=O)c(C)nc2c1`, the pIC50 in [1] is 6.13; in data set [2], 4.98; in [3], 6.10; in data set [4], 6.29; in data set [5], 4.70; in data set [6], 5.05. Also, the pIC50 is 6.16 in data set [7], 5.11 in data set [8], 4.82 in data set [9] and 6.13 in data set [10].

The values above are taken from BindingDB's records for PubMed 34998058 (Central South University, 2022).
